Source: ChEMBL document CHEMBL4507270 (2021)

Tests used:
[1] = target: Tyrosine-protein kinase ZAP-70 (Homo sapiens) (UniProt P43403)
[2] = target: Serine/threonine-protein kinase LATS1 (Homo sapiens) (UniProt O95835)
[3] = target: Muscarinic acetylcholine receptor M3 (Homo sapiens) (UniProt P20309); details: Compound concentration 10.0 uM
[4] = target: RAC-alpha serine/threonine-protein kinase (Homo sapiens) (UniProt P31749)
Rattus norvegicus = species on record: Rattus norvegicus; details: Compound concentration 10.0 uM
[5] = target: Serine/threonine-protein kinase PLK1 (Homo sapiens) (UniProt P53350)
[6] = target: Calcium/calmodulin-dependent protein kinase type II subunit beta (Homo sapiens) (UniProt Q13554)
[7] = target: Mitogen-activated protein kinase kinase kinase 7 (Homo sapiens) (UniProt O43318)
[8] = target: Ankyrin repeat and protein kinase domain-containing protein 1 (Homo sapiens) (UniProt Q8NFD2)
[9] = target: Macrophage colony-stimulating factor 1 receptor (Homo sapiens) (UniProt P07333)
[10] = target: Muscle, skeletal receptor tyrosine-protein kinase (Homo sapiens) (UniProt O15146)
[11] = tested on: Mast/stem cell growth factor receptor Kit (Homo sapiens), P10721 [D816V]
[12] = target: Mitogen-activated protein kinase kinase kinase 11 (Homo sapiens) (UniProt Q16584)
[13] = target: Microtubule-associated serine/threonine-protein kinase 1 (Homo sapiens) (UniProt Q9Y2H9)
Mu-type opioid receptor = Mu-type opioid receptor (Homo sapiens, UniProt P35372); details: Compound concentration 10.0 uM
[14] = target: Tyrosine-protein kinase JAK1 (Homo sapiens) (UniProt P23458)
[15] = target: Tyrosine-protein kinase receptor UFO (Homo sapiens) (UniProt P30530)
[16] = target: Interferon-induced, double-stranded RNA-activated protein kinase (Homo sapiens) (UniProt P19525)
[17] = target: Serine/threonine-protein kinase DCLK1 (Homo sapiens) (UniProt O15075)
[18] = target: Cyclin-dependent kinase 8 (Homo sapiens) (UniProt P49336)
[19] = target: Platelet-derived growth factor receptor beta (Homo sapiens, UniProt P09619)
[20] = target: RAC-beta serine/threonine-protein kinase (Homo sapiens) (UniProt P31751)
[21] = target: Mitogen-activated protein kinase 4 (Homo sapiens) (UniProt P31152)
[22] = target: Myosin light chain kinase (Homo sapiens) (UniProt Q32MK0)
[23] = target: Interleukin-1 receptor-associated kinase 4 (Homo sapiens) (UniProt Q9NWZ3)
[24] = target: Mitogen-activated protein kinase 7 (Homo sapiens) (UniProt Q13164)
[25] = target: Epithelial discoidin domain-containing receptor 1 (Homo sapiens, UniProt Q08345)
[26] = target: Aurora kinase B (Homo sapiens) (UniProt Q96GD4)
[27] = target: Hepatocyte growth factor receptor (Homo sapiens) (UniProt P08581)
[28] = target: Tyrosine-protein kinase Srms (Homo sapiens) (UniProt Q9H3Y6)
[29] = target: Serine/threonine-protein kinase OSR1 (Homo sapiens) (UniProt O95747)
[30] = target: Mitogen-activated protein kinase kinase kinase 15 (Homo sapiens) (UniProt Q6ZN16)
[31] = target: Cyclin-dependent kinase 16 (Homo sapiens) (UniProt Q00536)
[32] = target: Muscarinic acetylcholine receptor M1 (Homo sapiens) (UniProt P11229); details: Compound concentration 10.0 uM
[33] = target: MAP/microtubule affinity-regulating kinase 3 (Homo sapiens) (UniProt P27448)
[34] = target: Cyclin-dependent kinase 7 (Homo sapiens) (UniProt P50613)
[35] = target: Serine/threonine-protein kinase D2 (Homo sapiens) (UniProt Q9BZL6)
[36] = target: Serine/threonine-protein kinase TAO3 (Homo sapiens) (UniProt Q9H2K8)
[37] = tested on: Phosphatidylinositol 4,5-bisphosphate 3-kinase catalytic subunit alpha isoform (Homo sapiens), P42336 [E542K]
[38] = tested on: Tyrosine-protein kinase ABL1 (Homo sapiens), P00519 [T315I]
[39] = tested on: Receptor-type tyrosine-protein kinase FLT3 (Homo sapiens), P36888 [UNDEFINED MUTATION]
[40] = target: Protein-tyrosine kinase 2-beta (Homo sapiens) (UniProt Q14289)
[41] = target: RAF proto-oncogene serine/threonine-protein kinase (Homo sapiens) (UniProt P04049)
[42] = target: Serine/threonine-protein kinase RIO2 (Homo sapiens) (UniProt Q9BVS4)
[43] = target: Serine/threonine-protein kinase 32C (Homo sapiens) (UniProt Q86UX6)
[44] = target: Fibroblast growth factor receptor 1 (Homo sapiens, UniProt P11362); assay: Bayer in-house kinase assay with FGFR1
[45] = Compound concentration 1000.0 nM
[46] = Compound concentration 100.0 nM

Serine/threonine-protein kinase OSR1 (Homo sapiens), sequence (O95747 2-527 limits assumed): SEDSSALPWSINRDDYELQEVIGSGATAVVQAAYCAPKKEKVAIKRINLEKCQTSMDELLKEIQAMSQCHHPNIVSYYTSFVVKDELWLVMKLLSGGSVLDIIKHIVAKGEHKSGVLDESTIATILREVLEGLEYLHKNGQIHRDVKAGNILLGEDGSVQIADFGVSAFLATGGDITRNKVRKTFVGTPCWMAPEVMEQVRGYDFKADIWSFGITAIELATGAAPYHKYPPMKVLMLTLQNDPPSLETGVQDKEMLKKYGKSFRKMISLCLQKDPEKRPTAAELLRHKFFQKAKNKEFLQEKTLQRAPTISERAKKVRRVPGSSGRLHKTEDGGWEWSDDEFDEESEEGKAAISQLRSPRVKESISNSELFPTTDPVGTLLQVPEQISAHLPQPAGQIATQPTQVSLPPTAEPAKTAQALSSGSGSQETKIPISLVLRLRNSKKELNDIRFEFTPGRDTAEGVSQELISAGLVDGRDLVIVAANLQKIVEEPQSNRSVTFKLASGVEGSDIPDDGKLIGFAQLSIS
Serine/threonine-protein kinase 32C (Homo sapiens), sequence (Q86UX6 whole entry): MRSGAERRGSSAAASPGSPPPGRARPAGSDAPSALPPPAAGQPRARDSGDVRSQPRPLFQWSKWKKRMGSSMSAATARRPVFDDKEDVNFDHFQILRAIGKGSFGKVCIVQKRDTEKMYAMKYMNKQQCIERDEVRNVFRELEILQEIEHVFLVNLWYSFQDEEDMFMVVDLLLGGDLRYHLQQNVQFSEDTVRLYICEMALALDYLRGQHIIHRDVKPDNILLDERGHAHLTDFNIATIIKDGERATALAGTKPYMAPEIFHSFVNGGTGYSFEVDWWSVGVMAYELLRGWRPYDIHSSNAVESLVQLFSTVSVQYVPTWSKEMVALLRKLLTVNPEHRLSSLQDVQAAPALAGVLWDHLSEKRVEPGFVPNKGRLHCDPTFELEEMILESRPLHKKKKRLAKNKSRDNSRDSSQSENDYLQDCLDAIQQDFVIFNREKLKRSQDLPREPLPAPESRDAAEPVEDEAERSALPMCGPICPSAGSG
Muscarinic acetylcholine receptor M1 (Homo sapiens), sequence (P11229 whole entry): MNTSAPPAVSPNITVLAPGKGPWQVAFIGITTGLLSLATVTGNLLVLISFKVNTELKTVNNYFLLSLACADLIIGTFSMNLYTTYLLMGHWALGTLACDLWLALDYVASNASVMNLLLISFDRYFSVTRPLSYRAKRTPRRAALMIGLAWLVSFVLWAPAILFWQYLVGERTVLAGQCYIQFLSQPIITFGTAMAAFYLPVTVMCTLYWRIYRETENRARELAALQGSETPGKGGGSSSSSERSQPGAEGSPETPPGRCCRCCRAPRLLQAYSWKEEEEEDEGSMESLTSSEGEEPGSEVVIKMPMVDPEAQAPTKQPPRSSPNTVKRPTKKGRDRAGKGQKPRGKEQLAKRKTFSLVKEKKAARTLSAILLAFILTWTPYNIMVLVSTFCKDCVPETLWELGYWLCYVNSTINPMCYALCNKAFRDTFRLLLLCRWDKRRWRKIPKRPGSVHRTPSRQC
Serine/threonine-protein kinase D2 (Homo sapiens), sequence (Q9BZL6 whole entry): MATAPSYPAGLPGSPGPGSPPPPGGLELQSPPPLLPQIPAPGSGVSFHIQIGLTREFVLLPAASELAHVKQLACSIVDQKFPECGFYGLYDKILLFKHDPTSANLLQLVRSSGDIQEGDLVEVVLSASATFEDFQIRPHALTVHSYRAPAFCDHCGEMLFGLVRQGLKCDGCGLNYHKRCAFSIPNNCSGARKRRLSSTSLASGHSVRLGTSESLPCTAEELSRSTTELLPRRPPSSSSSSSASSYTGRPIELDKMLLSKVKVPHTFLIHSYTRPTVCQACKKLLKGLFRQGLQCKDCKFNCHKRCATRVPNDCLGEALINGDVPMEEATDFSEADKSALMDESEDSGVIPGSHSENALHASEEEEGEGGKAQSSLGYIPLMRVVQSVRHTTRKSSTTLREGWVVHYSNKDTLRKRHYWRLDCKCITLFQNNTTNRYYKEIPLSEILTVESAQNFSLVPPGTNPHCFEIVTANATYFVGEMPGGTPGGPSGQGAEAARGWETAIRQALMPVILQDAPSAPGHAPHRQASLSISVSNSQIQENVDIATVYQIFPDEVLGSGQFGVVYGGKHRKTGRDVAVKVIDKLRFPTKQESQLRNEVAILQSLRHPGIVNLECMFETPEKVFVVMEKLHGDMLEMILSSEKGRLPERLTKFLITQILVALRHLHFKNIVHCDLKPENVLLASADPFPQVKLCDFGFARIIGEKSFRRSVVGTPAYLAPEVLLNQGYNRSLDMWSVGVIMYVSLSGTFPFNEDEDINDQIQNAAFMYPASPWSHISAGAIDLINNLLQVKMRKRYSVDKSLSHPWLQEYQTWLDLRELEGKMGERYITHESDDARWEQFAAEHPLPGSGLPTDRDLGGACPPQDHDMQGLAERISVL
Myosin light chain kinase (Homo sapiens), sequence (Q32MK0 whole entry): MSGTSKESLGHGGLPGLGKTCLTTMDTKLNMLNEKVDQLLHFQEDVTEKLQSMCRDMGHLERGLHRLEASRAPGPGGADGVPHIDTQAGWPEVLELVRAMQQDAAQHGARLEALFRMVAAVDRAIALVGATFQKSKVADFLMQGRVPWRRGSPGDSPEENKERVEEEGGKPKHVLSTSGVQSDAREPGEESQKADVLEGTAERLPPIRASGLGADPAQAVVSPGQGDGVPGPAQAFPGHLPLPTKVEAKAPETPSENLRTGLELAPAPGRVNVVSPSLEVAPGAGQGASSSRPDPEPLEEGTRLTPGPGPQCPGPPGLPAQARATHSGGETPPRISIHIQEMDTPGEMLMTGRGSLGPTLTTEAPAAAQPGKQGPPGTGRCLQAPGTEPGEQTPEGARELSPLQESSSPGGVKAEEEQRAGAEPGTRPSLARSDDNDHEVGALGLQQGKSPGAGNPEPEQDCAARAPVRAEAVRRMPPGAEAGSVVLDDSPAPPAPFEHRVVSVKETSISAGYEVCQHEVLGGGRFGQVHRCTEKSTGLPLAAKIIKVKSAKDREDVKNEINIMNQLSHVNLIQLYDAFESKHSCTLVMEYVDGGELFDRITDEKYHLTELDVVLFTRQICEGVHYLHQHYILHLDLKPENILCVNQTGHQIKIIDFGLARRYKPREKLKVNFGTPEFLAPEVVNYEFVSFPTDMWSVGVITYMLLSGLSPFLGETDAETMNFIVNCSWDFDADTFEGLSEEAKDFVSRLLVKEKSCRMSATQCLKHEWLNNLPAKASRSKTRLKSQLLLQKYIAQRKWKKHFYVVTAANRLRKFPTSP
Mu-type opioid receptor, sequence (P35372 whole entry): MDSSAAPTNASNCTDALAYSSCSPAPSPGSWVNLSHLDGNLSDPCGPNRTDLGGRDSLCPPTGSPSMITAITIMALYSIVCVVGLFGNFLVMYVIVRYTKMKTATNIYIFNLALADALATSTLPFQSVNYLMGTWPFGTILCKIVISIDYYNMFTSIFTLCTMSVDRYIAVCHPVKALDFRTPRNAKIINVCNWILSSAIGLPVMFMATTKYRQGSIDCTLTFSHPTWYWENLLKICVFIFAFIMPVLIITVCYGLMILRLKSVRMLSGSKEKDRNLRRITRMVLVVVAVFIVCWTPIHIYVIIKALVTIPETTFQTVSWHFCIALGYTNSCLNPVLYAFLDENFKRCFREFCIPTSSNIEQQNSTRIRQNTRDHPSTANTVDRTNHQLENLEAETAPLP
Mast/stem cell growth factor receptor Kit (Homo sapiens), P10721 [D816V], sequence (P10721 whole entry D816V): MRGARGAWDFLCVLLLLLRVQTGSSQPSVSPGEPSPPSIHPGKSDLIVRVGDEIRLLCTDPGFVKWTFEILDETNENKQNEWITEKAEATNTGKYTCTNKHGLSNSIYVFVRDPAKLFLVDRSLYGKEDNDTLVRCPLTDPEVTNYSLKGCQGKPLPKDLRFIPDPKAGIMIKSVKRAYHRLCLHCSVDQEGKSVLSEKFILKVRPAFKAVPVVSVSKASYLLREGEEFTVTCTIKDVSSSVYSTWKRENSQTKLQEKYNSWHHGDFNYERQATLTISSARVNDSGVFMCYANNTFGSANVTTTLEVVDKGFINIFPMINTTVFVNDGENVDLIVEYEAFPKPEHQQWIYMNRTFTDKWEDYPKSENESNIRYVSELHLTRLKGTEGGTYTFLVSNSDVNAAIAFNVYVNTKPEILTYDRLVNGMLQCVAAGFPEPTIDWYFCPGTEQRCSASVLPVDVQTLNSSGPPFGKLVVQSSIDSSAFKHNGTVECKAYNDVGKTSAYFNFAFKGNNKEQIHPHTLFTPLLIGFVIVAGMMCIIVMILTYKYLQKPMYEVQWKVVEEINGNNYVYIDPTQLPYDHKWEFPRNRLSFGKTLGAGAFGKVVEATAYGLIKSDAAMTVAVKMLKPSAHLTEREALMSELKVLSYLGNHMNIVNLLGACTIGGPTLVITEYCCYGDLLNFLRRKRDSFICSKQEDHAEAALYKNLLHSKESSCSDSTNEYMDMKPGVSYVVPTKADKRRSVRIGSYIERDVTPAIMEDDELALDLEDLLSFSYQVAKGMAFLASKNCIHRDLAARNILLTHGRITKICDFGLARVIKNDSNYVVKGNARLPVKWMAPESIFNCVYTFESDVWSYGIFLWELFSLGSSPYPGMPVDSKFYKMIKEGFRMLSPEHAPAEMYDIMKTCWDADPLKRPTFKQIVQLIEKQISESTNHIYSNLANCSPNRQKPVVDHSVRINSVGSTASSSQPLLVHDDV
Aurora kinase B (Homo sapiens), sequence (Q96GD4 whole entry): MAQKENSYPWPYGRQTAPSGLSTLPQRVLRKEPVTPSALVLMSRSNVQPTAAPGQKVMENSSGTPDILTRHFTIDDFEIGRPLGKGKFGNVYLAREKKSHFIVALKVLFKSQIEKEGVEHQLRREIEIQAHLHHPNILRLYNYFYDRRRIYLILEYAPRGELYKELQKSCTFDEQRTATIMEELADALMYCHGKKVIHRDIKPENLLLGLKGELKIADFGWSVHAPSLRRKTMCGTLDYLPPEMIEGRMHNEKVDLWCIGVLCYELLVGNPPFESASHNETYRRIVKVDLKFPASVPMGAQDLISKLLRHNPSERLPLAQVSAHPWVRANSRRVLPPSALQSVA

Cc1cc(NC(=O)c2cccc(S(F)(F)(F)(F)F)c2)cc(-n2ccn3nc(-c4cccnc4)cc23)c1 [BAY-309]
inactive: residual activity [1, 45] 100% | residual activity [2, 45] 100% | inhibition [3] 16.3% | residual activity [4, 45] 100% | residual activity [5, 45] 95.3% | residual activity [6, 45] 100% | residual activity [7, 45] 100% | residual activity [8, 45] 100% | residual activity [9, 45] 89% | residual activity [10, 45] 82% | residual activity [11, 45] 100% | residual activity [12, 45] 100% | residual activity [13, 45] 100% | residual activity [15, 45] 100% | residual activity [16, 45] 72.7% | residual activity [17, 45] 66.2% | residual activity [18, 45] 86.2% | residual activity [19, 45] 100% | residual activity [20, 45] 82.5% | residual activity [21, 45] 50.4% | residual activity [22, 45] 100% | residual activity [23, 45] 98.4% | residual activity [24, 45] 90% | residual activity [26, 45] 82% | residual activity [27, 45] 77.3% | residual activity [28, 45] 86.9% | residual activity [29, 45] 100% | residual activity [30, 45] 100% | residual activity [31, 45] 100% | inhibition [32] 9.28% | residual activity [33, 45] 100% | residual activity [34, 45] 100% | residual activity [35, 45] 100% | residual activity [36, 45] 100% | residual activity [37, 45] 75.2% | residual activity [38, 45] 88.9% | residual activity [39, 45] 100% | residual activity [40, 45] 100% | residual activity [43, 45] 75.8%
active: inhibition (Rattus norvegicus) 67.8% | inhibition (Mu-type opioid receptor) 60% | residual activity [14, 45] 28.7% | residual activity [25, 45] 0% | residual activity [41, 45] 29.4% | residual activity [42, 45] 49.7%

Cc1cc(C)c(-n2ccn3nc(-c4cccnc4)cc23)cc1NC(=O)c1cc(C#N)cc(S(F)(F)(F)(F)F)c1 [BAY-826]
inactive: residual activity [1, 46] 79.9% | residual activity [2, 46] 83.9% | inhibition [3] 10.5% | residual activity [4, 46] 90.9% | residual activity [5, 46] 100% | residual activity [6, 46] 87.5% | residual activity [7, 46] 66.2% | residual activity [8, 46] 84.5% | residual activity [9, 46] 92.9% | residual activity [10, 46] 78.6% | residual activity [11, 46] 98.8% | residual activity [12, 46] 100% | residual activity [13, 46] 100% | inhibition (Mu-type opioid receptor) 20.7% | residual activity [14, 46] 93.1% | residual activity [15, 46] 80.5% | residual activity [16, 46] 96.4% | residual activity [17, 46] 73.6% | residual activity [18, 46] 76.7% | residual activity [19, 46] 74.8% | residual activity [20, 46] 88.4% | residual activity [21, 46] 86.3% | residual activity [22, 46] 100% | residual activity [23, 46] 100% | residual activity [24, 46] 100% | residual activity [26, 46] 98.8% | residual activity [27, 46] 82.8% | residual activity [28, 46] 67.4% | residual activity [29, 46] 87% | residual activity [31, 46] 92.5% | inhibition [32] 24.8% | residual activity [33, 46] 85.1% | residual activity [34, 46] 70.1% | residual activity [35, 46] 100% | residual activity [37, 46] 83.6% | residual activity [39, 46] 69.3% | residual activity [40, 46] 81.4% | residual activity [41, 46] 83.8% | residual activity [42, 46] 74.2% | residual activity [43, 46] 83.4%
> 10 µM (not active): IC50 [44]
active: inhibition (Rattus norvegicus) 59.1% | residual activity [25, 46] 0.1% | residual activity [30, 46] 48.8% | residual activity [36, 46] 47.1% | residual activity [38, 46] 33.4%
